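Five compound concentrations were applied to cells in 96-well plates for 48 hours; endpoints were derived by simple linear interpolation of the resulting dose-response curve. At the GI50, growth is halved. TGI marks complete inhibition of growth.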
Key:
Experiment in all cases: NCI-60 cell line screen, 48 h
786-0 renal = system: 786-0 renal
A498 renal = system: A498 renal
A549 NSCLC = system: A549 NSCLC
ACHN renal = system: ACHN renal
BT-549 breast = system: BT-549 breast
CAKI-1 renal = system: CAKI-1 renal
CCRF-CEM leukemia = system: CCRF-CEM leukemia
COLO 205 colon = system: COLO 205 colon
DU-145 prostate = system: DU-145 prostate
EKVX NSCLC = system: EKVX NSCLC
HCC-2998 colon = system: HCC-2998 colon
HCT-116 colon = system: HCT-116 colon
HCT-15 colon = system: HCT-15 colon
HL-60(TB) leukemia = system: HL-60(TB) leukemia
HOP-62 NSCLC = system: HOP-62 NSCLC
HOP-92 NSCLC = system: HOP-92 NSCLC
HS 578T breast = system: HS 578T breast
HT29 colon = system: HT29 colon
IGROV1 ovarian = system: IGROV1 ovarian
K-562 leukemia = system: K-562 leukemia
KM12 colon = system: KM12 colon
LOX IMVI melanoma = system: LOX IMVI melanoma
M14 melanoma = system: M14 melanoma
MALME-3M melanoma = system: MALME-3M melanoma
MCF7 breast = system: MCF7 breast
MDA-MB-231 breast = system: MDA-MB-231 breast
MDA-MB-435 = system: MDA-MB-435
MOLT-4 leukemia = system: MOLT-4 leukemia
NCI-H226 lung = system: NCI-H226 lung

**Q.** Which results are given for `CC(C)(C)CC(C)(C)c1ccc(OCCSC(=N)N)cc1`?
**A.** GI50 (786-0 renal): 1510 nM; TGI (786-0 renal): 3.09 µM; GI50 (A498 renal): 2340 nM; TGI (A498 renal): 11.5 µM; GI50 (A549 NSCLC): 1910 nM; TGI (A549 NSCLC): 4.43 µM; GI50 (ACHN renal): 1640 nM; TGI (ACHN renal): 3.27 µM; GI50 (BT-549 breast): 2020 nM; TGI (BT-549 breast): 4.8 µM; GI50 (CAKI-1 renal): 3.13 µM; TGI (CAKI-1 renal): 13.6 µM; GI50 (CCRF-CEM leukemia): 1990 nM; TGI (CCRF-CEM leukemia): 5.32 µM; GI50 (COLO 205 colon): 564 nM; TGI (COLO 205 colon): 2010 nM; GI50 (DU-145 prostate): 1740 nM; TGI (DU-145 prostate): 3.22 µM; GI50 (EKVX NSCLC): 1410 nM; TGI (EKVX NSCLC): 2980 nM; GI50 (HCC-2998 colon): 610 nM; TGI (HCC-2998 colon): 1880 nM; GI50 (HCT-116 colon): 1380 nM; TGI (HCT-116 colon): 2850 nM; GI50 (HCT-15 colon): 1060 nM; TGI (HCT-15 colon): 2380 nM; GI50 (HL-60(TB) leukemia): 1600 nM; TGI (HL-60(TB) leukemia): 3.52 µM; GI50 (HOP-62 NSCLC): 2150 nM; TGI (HOP-62 NSCLC): 4 µM; GI50 (HOP-92 NSCLC): 1140 nM; TGI (HOP-92 NSCLC): 2570 nM; GI50 (HS 578T breast): 2150 nM; TGI (HS 578T breast): 5.42 µM; GI50 (HT29 colon): 417 nM; TGI (HT29 colon): 1850 nM; GI50 (IGROV1 ovarian): 2310 nM; TGI (IGROV1 ovarian): 5.2 µM; GI50 (K-562 leukemia): 833 nM; TGI (K-562 leukemia): 3.86 µM; GI50 (KM12 colon): 1500 nM; TGI (KM12 colon): 3.05 µM; GI50 (LOX IMVI melanoma): 1480 nM; TGI (LOX IMVI melanoma): 2920 nM; GI50 (M14 melanoma): 1680 nM; TGI (M14 melanoma): 3.42 µM; GI50 (MALME-3M melanoma): 1810 nM; TGI (MALME-3M melanoma): 3.46 µM; GI50 (MCF7 breast): 1320 nM; TGI (MCF7 breast): 3000 nM; GI50 (MDA-MB-231 breast): 1220 nM; TGI (MDA-MB-231 breast): 2800 nM; GI50 (MDA-MB-435): 1450 nM; TGI (MDA-MB-435): 2800 nM; GI50 (MOLT-4 leukemia): 1700 nM; TGI (MOLT-4 leukemia): 4.8 µM; GI50 (NCI-H226 lung): 1930 nM
